Series [1] is described as follows: H2O2 scavenging by peroxalate chemiluminescence (diphenyl oxalate, rubrene). The procedure:
FIG. 21 is a bar graph illustrating H2O2-scavenging by BRAP-encapsulated PLGA microparticles. BRAP-encapsulated PLGA microparticles were incubated in H2O2 solution (10 μM) for 10 minutes, and the level of H2O2 was determined by peroxalate chemiluminesce using rubrene (1 mg) and diphenylperoxalate (10 mg).
(§1) Without wishing to be limited by any theory, BRAP could scavenge H2O2 during its H2O2-mediated boronate oxidation. This possibility was investigated using peroxalate chemiluminescence. Peroxalate chemiluminescence has been used as a versatile tool for the detection of a variety of chemical species including fluorescent molecules and H2O2 because of its excellent specificity and simplicity (Hadd, et al., 1999, J. Chem. Educ. 76:1237; Lee, et al., 2011, Bull. Korean Chem. Soc. 32:2187). […] A majority of H2O2 was scavenged by the same concentration of BRAP within 1 minutes.
The ability of the boronate compound to scavenge H2O2 was evaluated by measuring the chemiluminescence intensity after the reaction with diphenyl oxalate solution including rubrene. The boronate (1 μM, or 10 μM) was added in the H2O2 solution (10 μM). After 1 min reaction with H2O2, diphenyl oxalate solution was added to the H2O2 solution, and the chemiluminescence intensity was measured by using a luminometer (Femtomaster FB 12, Zylux Corporation, TN, US; FIG. 13).
The ability of BRAP to scavenge H2O2 was evaluated by measuring the chemiluminescence intensity after the reaction with diphenyl oxalate solution including rubrene. BRAP (1 μM, 5 μM, 10 μM, 20 μM) was added in the H2O2 solution (10 μM). After 1, 5 or 10 min reaction with H2O2, diphenyl oxalate solution was added to the H2O2 solution, and the chemiluminescence intensity was measured by using a luminometer (Femtomaster FB 12, Zylux Corporation, TN, US).

The next series deals with iNOS. The experiment in a line: iNOS level in LPS-stimulated macrophage cells. In kind it is cell-based, mouse. The procedure:
(§2) FIG. 4, comprising FIGS. 4A-4F, is a set of graphs, bar graphs and images illustrating anti-oxidant and anti-inflammatory effects of BRAP in vitro. […] The generation of ROS was monitored by flow cytometry as an indicator of DCF fluorescence. Fluorescence was analyzed in 10,000 cells with excitation at 480 nm and emission at 530 nm. FIG. 4C: Protective effect of BRAP on H2O2— stimulated adult rat cardiomyocytes. V=vehicle, *<0.05 vs. V+H2O2 (n=4). […] (n=4/group).
The anti-inflammatory effects of BRAP on LPS-stimulated cells were investigated by measuring the level of inflammatory cytokines such as TNF-α (tumor necrosis factor-alpha) and iNOS (inducible nitric oxide synthases) (FIGS. 4E-4F). […] These observations indicate that BRAP, as well as BRAP-encapsulated PLGA microparticles, is able to scavenge overproduced H2O2 and serve as a H2O2-activable anti-oxidant. Further, the enhanced anti-oxidant activity of BRAP is derived from the combined effects of H2O2-scavenging boronic esters and HBA generation after H2O2-mediated boronate oxidation.

The subject of series [2] is renal ischemia/reperfusion (I/R) injury. The series is described as follows: Kidney I/R injury model in the mouse, oral BRAP. In kind it is in vivo. The procedure:
BRAP administered orally was tested in a kidney I/R injury model in the mouse. In this model, one of the mouse's kidney was subjected to ischemia for about 30 min, using a combination of unilateral clamping and contralateral nephrectomy. BRAP was administered orally to the mice at two time points: the night before the surgery, and immediately before the I/R surgery. The read-out markers after I/R comprised: creatinine levels 24 hours after reperfusion; tumor necrosis factor alpha (TNF-α) and monocyte chemo-attractant protein-1 (MCP-1) (both inflammatory markers); DHE staining (monitoring for ROS generation); and TUNEL staining (monitoring for apoptosis).

Series [3] in a line: Cumulative toxicity, daily administration for 7 days in mice. As to conditions: 1.5 mg/kg/day intraperitoneal. In kind it is in vivo, mouse. As to the method: FIG. 7, comprising FIGS. 7A-7C, is a set of images and bar graphs illustrating the safety profile of BRAP (1.5 mg/kg/day) after daily intraperitoneal administration for 7 days. FIGS. 7A-7B: Creatinine (FIG. 7A) and ALT (FIG. 7B) levels 7 days after daily BRAP administration. FIG. 7C: Representative H/E stained tissue sections of different organs 7 days after daily BRAP administration (n=4/group).
To determine the potential cumulative toxic effects of BRAP, BRAP (1.5 mg/kg/day) was administered daily for 7 days in mice.

For series [4], the system named is H2O2-stimulated adult rat cardiomyocytes. The experiment in a line: Protection from H2O2-induced cell death in ARVC. The series is classed as cell-based. The note with it: H2O2 0.25 mM; concentration dependent; vs vehicle. As to the method:
as §2
Since cardiovascular disease is one of the most common and clinically relevant problems associated with oxidative stress injury, the effect of BRAP on cellular protection from the H2O2-induced cell death was further examined using ARVC in vitro.

Series [5] in a line: Reaction of BRAP with H2O2 monitored by 1H NMR in D2O. In kind it is physicochemical. As to the method: Since BRAP was designed to be rapidly oxidized by H2O2, generating HBA, boric acid and 2-(hydroxymethyl)-2-methylpropane-1,3-diol, the sensitivity of BRAP to H2O2 was investigated using ^1H NMR. BRAP was added to D2O containing H2O2 and the changes in the signal were monitored over time. In the presence of H2O2, BRAP was rapidly oxidized to generate HBA in a H2O2 concentration-dependent manner, confirmed by the appearance of new aromatic proton peaks at 6.8 and 7.2 ppm. In the presence of equimolar concentration of H2O2 (1 mM), a majority of boronic esters were cleaved within 30 minutes, with a half-life of hydrolysis of ˜5 minutes. Nearly all of boronic ester groups were cleaved by 5-fold excess of H2O2 (5 mM) within 5 minutes.

Series [6] in a line: Stability of BRAP under acidic condition (1H NMR). In kind it is physicochemical. As to conditions: pH 3.0, 72 hours of incubation. As to the method:
FIG. 2, comprising FIGS. 2A-2C, illustrates H2O2 scavenging effects of BRAP. FIG. 2A: Exemplary change of UV-absorbance of BRAP in the presence of H2O2. FIG. 2B: H2O2 scavenging by various concentrations of BRAP. H2O2 solution (10 μM) was mixed with HBA or BRAP for 1 min, and the chemiluminescent intensity was measured by adding diphenyl oxalate (10 mg) and rubrene (1 mg). *p<0.01, **p<0.001 relative to H2O2 only group (n=4/group). FIG. 2C: ^1H NMR spectrum of BRAP under acidic condition (pH=3.0) after 72 h.
as §1

[7] abbreviates: oral administration, 24 hours after reperfusion.

The half-life is the time in which the quantity being followed falls by half.

In the case of `CC1(CO)COB(c2ccc(CO)cc2)OC1` [BRAP, (4-(5-(hydroxymethyl)-5-methyl-1,3,2-dioxaborinan-2-yl)phenyl)methanol], the “chemiluminescence intensity (H2O2 scavenging)” value in series [1] (H2O2 solution 10 μM, BRAP, concentration-dependent) is given as “significant reduction in chemiluminescence intensity”. For the same molecule, the “time in which a majority of H2O2 was scavenged” value in series [1] (same concentration of BRAP as H2O2) is not above 1 min. Also, the iNOS level entry in the series with iNOS is on record as “significantly suppressing”. In series [2] (daily oral administration 8 mg/kg, after 4 days), the “renal function (creatinine levels)” value was “significant improvement”. In series [2] (oral administration), the “DHE staining (ROS generation) in kidney” value was “significantly reduced” and the “TUNEL staining (apoptosis) in kidney” value is given as “significantly reduced”. In series [2] (setting [7]), the “activation of MCP-1 in kidney” value is “significantly attenuated” and the “activation of TNF-α in kidney” value was “significantly attenuated”. In series [3], the “histology of different organs (H/E)” value is given as “no significant histological evidence of accumulated toxicity”, the “serum test for hepatic function (ALT)” value is “no significant abnormalities” and the “serum test for renal function (creatinine)” value is “no significant abnormalities”. The “protection from H2O2-induced cell death” value in series [4] is recorded as “significant protection”. In addition, the “time in which nearly all of boronic ester groups were cleaved” value in series [5] (5-fold excess of H2O2 (5 mM)) was not above 5 min. The half-life at 1 mM in series [5] (D2O containing H2O2, equimolar concentration of H2O2 (1 mM), read-out: half-life of hydrolysis) was approximately 5 min. The “stability of boronic ester” value in series [5] (absence of H2O2, 3 days) was “remained intact”. Also, the “time in which a majority of boronic esters were cleaved” value in series [5] (equimolar concentration of H2O2 (1 mM)) is not above 30 min. In series [6], the “stability in acidic environment” value is on record as “not influenced”.

These data come from patent US10370391B2, “Hydrogen peroxide-activable, anti-oxidant compounds and methods using same” (Beth Israel Deaconess Medical Center, Inc., priority 2014, dated 2019).
